Test results taken from ChEMBL document CHEMBL1201862, “PubChem BioAssay data set” (2004).
Calls of active or inactive are those of the source.

Assays:
[1] = target: T1, RNA-binding protein pos-1 (Caenorhabditis elegans, UniProt G5EF15); experiment: disruptors of C. elegans POS-1 RNA interaction – biochemical, fluorescence polarization, dose response (AID 1964);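 also: purified POS-1 fused to maltose binding protein made in E. coli; potency of compounds blocking POS-1 binding to fluorescent RNA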
T1 sequence (G5EF15 whole entry): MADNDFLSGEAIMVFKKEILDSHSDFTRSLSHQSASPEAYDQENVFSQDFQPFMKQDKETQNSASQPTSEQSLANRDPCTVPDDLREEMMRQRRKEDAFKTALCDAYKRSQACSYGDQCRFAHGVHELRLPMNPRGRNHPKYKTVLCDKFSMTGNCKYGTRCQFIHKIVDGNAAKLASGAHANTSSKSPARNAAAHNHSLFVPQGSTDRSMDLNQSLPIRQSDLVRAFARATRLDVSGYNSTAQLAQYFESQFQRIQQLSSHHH

[2] = target: T2, Zinc finger protein mex-5 (Caenorhabditis elegans, UniProt Q9XUB2); experiment: potency of MEX-5 RNA-binding blockers – biochemical, C. elegans, fluorescence polarization, dose response (AID 1960)
T2 sequence (Q9XUB2 whole entry): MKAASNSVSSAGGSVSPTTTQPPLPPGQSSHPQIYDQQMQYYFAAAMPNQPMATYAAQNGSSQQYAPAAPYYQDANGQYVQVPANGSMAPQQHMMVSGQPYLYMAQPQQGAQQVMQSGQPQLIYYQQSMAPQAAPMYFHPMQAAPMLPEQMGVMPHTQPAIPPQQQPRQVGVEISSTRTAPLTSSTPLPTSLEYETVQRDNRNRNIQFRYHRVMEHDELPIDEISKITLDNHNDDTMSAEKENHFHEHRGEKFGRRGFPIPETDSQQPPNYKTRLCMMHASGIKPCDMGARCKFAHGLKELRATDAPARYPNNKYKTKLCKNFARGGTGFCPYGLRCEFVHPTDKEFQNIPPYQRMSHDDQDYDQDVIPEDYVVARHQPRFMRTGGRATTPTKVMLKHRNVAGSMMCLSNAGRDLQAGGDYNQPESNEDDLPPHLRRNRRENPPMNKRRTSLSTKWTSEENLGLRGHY

[3] = target: Heat shock protein HSP 90-alpha (Homo sapiens, UniProt P07900); experiment: Luminescence-based dose response biochemical high throughput screening assay for inhibitors of the Heat Shock Protein 90 (HSP90). [Related pubchem assays: 1831 (Summary AID.), 1846 (Confirmation screen.), 1789 (Primary screen.)]
[4] = target: T3, Acyl-homoserine lactone acylase PvdQ (Pseudomonas aeruginosa (strain LESB58), UniProt Q9I194); experiment: PvdQ acylase enzyme activity blockers – biochemical, fluorescence, plate reader and imaging, cherry-picks, dose response (AID 493231)
T3 sequence (Q9I194 whole entry): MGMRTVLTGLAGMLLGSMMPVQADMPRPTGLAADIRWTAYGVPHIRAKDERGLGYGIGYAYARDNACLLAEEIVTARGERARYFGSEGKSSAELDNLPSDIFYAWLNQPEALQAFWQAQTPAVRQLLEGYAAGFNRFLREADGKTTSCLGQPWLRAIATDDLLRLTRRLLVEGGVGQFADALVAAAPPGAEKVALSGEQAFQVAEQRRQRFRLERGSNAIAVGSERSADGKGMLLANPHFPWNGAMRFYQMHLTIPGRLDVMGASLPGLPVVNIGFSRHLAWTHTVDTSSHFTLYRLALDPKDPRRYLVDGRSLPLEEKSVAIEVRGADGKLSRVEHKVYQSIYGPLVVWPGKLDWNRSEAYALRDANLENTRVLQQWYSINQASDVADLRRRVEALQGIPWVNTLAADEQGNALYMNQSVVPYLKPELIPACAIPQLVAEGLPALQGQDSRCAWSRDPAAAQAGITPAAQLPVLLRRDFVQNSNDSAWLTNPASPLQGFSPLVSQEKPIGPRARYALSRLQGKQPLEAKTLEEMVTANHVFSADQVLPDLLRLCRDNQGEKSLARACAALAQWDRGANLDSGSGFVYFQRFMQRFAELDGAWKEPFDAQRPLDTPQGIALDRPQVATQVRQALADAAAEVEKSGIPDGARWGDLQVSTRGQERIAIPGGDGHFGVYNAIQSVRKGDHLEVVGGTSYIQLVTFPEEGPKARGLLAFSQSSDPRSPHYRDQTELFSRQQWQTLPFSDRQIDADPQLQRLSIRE

[5] = target: T4, Leucine aminopeptidase (Plasmodium falciparum 3D7, UniProt Q8IL11); experiment: P. falciparum M17LAP inhibitors, primary screen, biochemical, fluorogenic H-Leu-NHMec substrate, 1536-well (AID 1619); format: functional
T4 sequence (Q8IL11 whole entry): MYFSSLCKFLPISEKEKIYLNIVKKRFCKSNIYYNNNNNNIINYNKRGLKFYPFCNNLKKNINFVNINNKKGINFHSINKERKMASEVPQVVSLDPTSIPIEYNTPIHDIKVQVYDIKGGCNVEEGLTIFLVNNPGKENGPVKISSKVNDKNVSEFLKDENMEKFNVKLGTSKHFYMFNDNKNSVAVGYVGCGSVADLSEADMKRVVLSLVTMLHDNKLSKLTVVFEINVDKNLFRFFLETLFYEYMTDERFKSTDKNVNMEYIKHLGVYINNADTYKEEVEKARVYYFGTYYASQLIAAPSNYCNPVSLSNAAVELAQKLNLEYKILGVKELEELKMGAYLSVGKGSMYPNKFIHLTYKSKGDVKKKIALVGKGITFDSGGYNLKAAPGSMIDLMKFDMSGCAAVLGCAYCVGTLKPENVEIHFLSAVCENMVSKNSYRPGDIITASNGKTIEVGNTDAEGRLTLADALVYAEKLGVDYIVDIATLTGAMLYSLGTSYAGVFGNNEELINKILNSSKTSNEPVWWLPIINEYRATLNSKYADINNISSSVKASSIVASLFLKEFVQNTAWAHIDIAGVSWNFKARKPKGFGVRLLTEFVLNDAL

[6] = target: T5, Aspartyl aminopeptidase (Plasmodium falciparum 3D7, UniProt Q8I2J3); experiment: Counterscreen for inhibitors of M1 and M17 aminopeptidases: QFRET-based biochemical high throughput dose response assay for inhibitors of the Plasmodium falciparum M18 Aspartyl Aminopeptidase (PFM18AAP). [Related PubChem assays: 1619 (Screening assay (M17LAP inhibitors).), 1445 (Screening assay (M1AAP inhibitors).)]
T5 sequence (Q8I2J3 whole entry): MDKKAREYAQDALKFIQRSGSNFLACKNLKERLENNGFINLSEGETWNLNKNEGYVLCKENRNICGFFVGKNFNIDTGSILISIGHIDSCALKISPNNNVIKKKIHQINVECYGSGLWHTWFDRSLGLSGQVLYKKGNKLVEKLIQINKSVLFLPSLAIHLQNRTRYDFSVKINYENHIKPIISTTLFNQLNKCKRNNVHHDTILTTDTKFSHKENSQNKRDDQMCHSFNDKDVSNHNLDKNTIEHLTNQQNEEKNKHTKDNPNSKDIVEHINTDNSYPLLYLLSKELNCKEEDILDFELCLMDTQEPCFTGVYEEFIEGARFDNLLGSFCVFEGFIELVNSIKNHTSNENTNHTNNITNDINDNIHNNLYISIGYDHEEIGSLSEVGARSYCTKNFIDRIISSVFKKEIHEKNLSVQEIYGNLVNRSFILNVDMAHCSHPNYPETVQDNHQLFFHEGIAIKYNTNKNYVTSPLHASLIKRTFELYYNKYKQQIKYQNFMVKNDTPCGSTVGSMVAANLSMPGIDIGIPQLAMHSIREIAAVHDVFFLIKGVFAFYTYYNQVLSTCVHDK

[7] = target: T6, Bcl-2-like protein 10 (Homo sapiens, UniProt Q9HD36); experiment: Bcl-B/TR3 peptide binding disruption – biochemical, fluorescence polarization, FITC-TR3 peptide, selectivity assay for Bfl-1 inhibitor project, primary screen (AID 748);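 also: fluorescence polarization from a fluorescein-labelled TR3 peptide binding purified Bcl-B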
T6 sequence (Q9HD36 whole entry): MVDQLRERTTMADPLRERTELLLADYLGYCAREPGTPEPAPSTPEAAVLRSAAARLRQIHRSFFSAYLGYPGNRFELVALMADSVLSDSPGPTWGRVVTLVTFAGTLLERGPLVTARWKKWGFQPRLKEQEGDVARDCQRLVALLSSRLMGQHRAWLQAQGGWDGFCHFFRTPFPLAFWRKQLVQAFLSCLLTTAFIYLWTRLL

[8] = target: Procathepsin L (Homo sapiens, UniProt P07711); experiment: CTSL1 protease inhibition – biochemical, QFRET, 1536-well, counter-screen for M1/M17 aminopeptidase inhibitor project, dose response (AID 2214)
Procathepsin L, sequence (P07711 whole entry): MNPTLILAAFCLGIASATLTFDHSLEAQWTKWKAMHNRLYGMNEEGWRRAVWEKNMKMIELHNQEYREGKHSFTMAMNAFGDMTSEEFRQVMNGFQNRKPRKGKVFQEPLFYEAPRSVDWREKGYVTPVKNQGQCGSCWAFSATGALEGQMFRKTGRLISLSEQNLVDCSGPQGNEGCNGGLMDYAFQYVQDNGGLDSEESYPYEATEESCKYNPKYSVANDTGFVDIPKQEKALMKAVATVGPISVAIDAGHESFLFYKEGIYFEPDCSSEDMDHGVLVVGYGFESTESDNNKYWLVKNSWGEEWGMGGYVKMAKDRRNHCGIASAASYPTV

[9] = target: Cytochrome P450 2C19 (Homo sapiens, UniProt P33261); experiment: qHTS Assay for Inhibitors and Substrates of Cytochrome P450 2C19. [Related pubchem assays: 410 ]; format: ADME; conditions: read-out: Potency
Cytochrome P450 2C19, sequence (P33261 whole entry): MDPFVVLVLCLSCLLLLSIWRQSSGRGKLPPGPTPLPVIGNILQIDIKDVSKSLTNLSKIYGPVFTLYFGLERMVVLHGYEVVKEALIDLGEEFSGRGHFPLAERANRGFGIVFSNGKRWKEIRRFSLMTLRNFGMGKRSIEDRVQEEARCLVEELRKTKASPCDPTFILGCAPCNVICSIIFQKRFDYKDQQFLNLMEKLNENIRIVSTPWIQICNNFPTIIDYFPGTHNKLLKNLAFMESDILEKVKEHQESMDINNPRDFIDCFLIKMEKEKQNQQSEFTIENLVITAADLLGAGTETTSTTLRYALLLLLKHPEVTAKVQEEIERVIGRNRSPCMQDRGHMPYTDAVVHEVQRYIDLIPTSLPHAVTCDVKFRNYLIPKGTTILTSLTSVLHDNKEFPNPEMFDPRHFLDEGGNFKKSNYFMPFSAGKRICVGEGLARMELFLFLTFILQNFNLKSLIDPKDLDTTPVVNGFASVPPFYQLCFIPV

[10] = target: Cytochrome P450 3A4 (Homo sapiens, UniProt P08684); conditions: Potency;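 also: confirmatory qHTS run detecting inhibitors and substrates of CYP3A4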
Cytochrome P450 3A4, sequence (P08684 whole entry): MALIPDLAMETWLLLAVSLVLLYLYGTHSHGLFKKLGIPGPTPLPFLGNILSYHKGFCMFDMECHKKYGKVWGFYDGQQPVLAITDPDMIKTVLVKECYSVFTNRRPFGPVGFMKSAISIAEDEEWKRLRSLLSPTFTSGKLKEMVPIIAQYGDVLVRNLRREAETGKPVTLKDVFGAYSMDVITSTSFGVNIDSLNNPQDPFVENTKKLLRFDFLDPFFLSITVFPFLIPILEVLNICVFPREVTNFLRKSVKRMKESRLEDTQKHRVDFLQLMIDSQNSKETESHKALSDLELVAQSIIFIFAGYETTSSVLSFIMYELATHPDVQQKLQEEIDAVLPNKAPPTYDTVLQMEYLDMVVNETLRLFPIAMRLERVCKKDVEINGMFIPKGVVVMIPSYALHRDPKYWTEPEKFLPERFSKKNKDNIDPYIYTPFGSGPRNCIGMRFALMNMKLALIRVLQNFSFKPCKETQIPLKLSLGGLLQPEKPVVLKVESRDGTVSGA

[11] = target: Cytochrome P450 2C9 (Homo sapiens, UniProt P11712); conditions: Potency
Cytochrome P450 2C9, sequence (P11712 whole entry): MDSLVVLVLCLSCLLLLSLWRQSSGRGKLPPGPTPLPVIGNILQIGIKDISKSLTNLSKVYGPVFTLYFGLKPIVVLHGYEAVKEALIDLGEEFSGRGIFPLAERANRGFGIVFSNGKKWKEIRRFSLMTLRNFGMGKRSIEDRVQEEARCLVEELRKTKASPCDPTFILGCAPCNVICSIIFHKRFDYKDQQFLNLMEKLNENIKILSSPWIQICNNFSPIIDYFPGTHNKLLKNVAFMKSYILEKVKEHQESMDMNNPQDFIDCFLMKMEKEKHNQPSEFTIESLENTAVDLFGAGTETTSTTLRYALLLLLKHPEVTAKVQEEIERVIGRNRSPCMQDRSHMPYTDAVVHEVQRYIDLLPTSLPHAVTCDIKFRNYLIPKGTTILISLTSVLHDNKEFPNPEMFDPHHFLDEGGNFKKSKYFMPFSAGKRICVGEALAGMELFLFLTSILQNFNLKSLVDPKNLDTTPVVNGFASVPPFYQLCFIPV

[12] = Trypanosoma cruzi growth suppression in host cells – NIH3T3 host cells, beta-gal luminescence, confirmation (AID 2044); format: functional, cell-based;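 also: intracellular parasites grown in NIH/3T3 mouse fibroblasts as host cells; luminescent beta-galactosidase reporter signal from transgenic T. cruzi replicating inside host cells; inhibitors lower the luminescence signal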
[13] = NIH3T3 cell viability loss – ATP luminescence, mouse fibroblasts, counter-screen, dose response (AID 2010); format: functional, cell-based;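 also: cells exposed to compound for about 90 hours before reading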
[14] = cells
[15] = target: Prothrombin (Homo sapiens, UniProt P00734); experiment: Thrombin 1536 HTS Dose Response Confirmation. [Related pubchem assays: 1046 (Thrombin 1536 HTS; hits were confirmed in this assay)]; format: functional
[16] = target: Epstein-Barr nuclear antigen 1 (Epstein-Barr virus (strain B95-8) (HHV-4) (Human herpesvirus 4), UniProt P03211); experiment: inhibition of EBV nuclear antigen 1 DNA binding – biochemical, fluorescence polarization, 1536-well, dose response (AID 2381); parameters: species or system human gammaherpesvirus 4;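 also: fluorescence polarization of a Cy5 DNA probe bound by EBNA-1 protein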
Epstein-Barr nuclear antigen 1, sequence (P03211 whole entry): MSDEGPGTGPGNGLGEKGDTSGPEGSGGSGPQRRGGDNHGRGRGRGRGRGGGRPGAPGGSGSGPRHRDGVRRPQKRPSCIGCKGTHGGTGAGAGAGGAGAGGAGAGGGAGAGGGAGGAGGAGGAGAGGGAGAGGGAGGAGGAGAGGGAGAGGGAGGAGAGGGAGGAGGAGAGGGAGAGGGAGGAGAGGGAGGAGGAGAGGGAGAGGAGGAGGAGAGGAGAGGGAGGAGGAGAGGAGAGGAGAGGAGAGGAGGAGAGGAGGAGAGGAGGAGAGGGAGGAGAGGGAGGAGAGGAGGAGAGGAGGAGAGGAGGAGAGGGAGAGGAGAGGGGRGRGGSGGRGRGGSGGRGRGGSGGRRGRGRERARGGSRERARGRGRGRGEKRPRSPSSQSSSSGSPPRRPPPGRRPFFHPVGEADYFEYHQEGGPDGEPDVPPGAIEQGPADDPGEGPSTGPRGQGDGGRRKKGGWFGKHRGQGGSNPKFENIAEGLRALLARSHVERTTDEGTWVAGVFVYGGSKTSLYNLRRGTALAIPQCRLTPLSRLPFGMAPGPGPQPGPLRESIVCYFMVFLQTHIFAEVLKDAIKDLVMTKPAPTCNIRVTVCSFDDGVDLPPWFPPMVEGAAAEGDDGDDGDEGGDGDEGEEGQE

[17] = target: Lytic switch protein BZLF1 (Epstein-Barr virus (strain B95-8) (HHV-4) (Human herpesvirus 4), UniProt P03206); experiment: inhibition of BZLF1 ZTA DNA binding – biochemical, fluorescence polarization, Epstein-Barr virus, 1536-well, counter-screen for EBNA-1 inhibitor project, dose response (AID 2377); parameters: species or system human gammaherpesvirus 4;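 also: fluorescence polarization of Cy5-labelled ZRE DNA probe bound by purified Zta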
Lytic switch protein BZLF1, sequence (P03206 whole entry): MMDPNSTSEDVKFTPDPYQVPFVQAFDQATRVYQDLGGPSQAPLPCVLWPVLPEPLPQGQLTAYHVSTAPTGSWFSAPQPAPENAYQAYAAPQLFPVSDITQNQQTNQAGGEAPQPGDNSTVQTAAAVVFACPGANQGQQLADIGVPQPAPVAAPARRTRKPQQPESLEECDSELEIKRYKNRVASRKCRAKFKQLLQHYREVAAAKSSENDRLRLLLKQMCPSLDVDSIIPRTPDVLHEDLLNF

[18] = luciferase reporter signal suppression in cells – H4 neuroglioma cells, luminescence, dose response (AID 1990); format: functional, cell-based
[19] = Luminescence Cell-Based Dose Response HTS to Identify Inhibitors of 5'UTR Stem-Loop Driven Prion Protein mRNA Translation in H4 Neuroglioblastoma Cells. [Related pubchem assays: 1827 (Project Summary), 1813 (Primary HTS)]; format: functional
[20] = alpha-synuclein stem-loop luciferase translation blockers – H4 neuroglioma cells, luminescence, confirmation (AID 1988); format: functional, cell-based
[21] = target: T7, Protein skinhead-1 (Caenorhabditis elegans, UniProt P34707); format: functional
T7 sequence (P34707 whole entry): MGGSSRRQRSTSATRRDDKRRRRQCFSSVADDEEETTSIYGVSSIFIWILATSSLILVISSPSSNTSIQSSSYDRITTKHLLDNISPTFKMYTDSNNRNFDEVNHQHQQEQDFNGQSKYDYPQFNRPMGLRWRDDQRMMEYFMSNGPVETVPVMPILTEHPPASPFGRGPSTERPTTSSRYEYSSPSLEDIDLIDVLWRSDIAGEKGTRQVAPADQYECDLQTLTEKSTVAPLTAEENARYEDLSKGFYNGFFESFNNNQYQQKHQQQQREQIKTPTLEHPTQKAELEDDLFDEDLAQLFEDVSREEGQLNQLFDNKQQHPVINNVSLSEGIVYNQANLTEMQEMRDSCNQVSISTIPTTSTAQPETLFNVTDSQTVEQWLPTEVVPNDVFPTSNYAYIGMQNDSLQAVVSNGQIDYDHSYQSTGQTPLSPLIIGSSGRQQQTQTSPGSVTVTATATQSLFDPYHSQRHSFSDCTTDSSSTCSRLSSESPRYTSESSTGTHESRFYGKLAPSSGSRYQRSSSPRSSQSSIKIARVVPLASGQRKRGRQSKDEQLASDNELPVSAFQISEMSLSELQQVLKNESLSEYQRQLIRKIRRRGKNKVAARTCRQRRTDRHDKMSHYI

CCOC(=O)c1ccc(-c2ccc(C=O)o2)cc1
EC50 [1]: 43.6 µM (active)
EC50 [2]: > 300 µM (not active)
IC50 [3]: 10.3 µM (not active)
AC50 [4]: 9.42 µM (active)

COC(=O)c1cccc(NC(=O)CSc2nc(C)cc(O)n2)c1
IC50 [5]: 7.51 µM (active)
IC50 [6]: > 73.5 µM (not active)
IC50 [7]: 56.8 µM (inactive)
IC50 [8]: > 59.6 µM (not active)

COC(=O)C/C=C/C(C)C(OCc1cccc(Br)c1)C(C)C(OC)C1CCCCC1 (stereo unspecified)
AC50 [9]: 5.01 µM (inconclusive)
AC50 [10]: 3.98 µM (inconclusive)

Cc1ccc(/C=C/C2=CC3(C)CC2(C)C(c2ccc(C)cc2)CC3=O)cc1 (stereo unspecified)
AC50 [9]: 0.631 µM (inconclusive)
AC50 [11]: 3.98 µM (inconclusive)

CCOc1ccc(CNCCc2ccc3c(c2)OCO3)cc1
EC50 [12]: < 0.1 µM (active)
EC50 [13]: > 60 µM (not active)
EC50 [14]: 0.496 µM (active)

CC(=O)N1c2ccccc2N2C(c3c(C)c(C)cc(C)c3C)=NON12
IC50 [15]: 3.37 µM (active)

COc1ccc2oc(C(=O)OCC(=O)Nc3cc(S(=O)(=O)N4CCOCC4)ccc3C)c(C)c2c1
IC50 [16]: 5.76 µM (active)
IC50 [17]: > 111 µM (not active)

CCn1nnc(-c2ccccc2NC(=O)c2cccc(-n3cnnn3)c2)n1
EC50 [18]: 22.5 µM (active)
EC50 [19]: 14.9 µM (active)
EC50 [20]: > 120 µM (not active)
IC50 [16]: 13.5 µM (not active)
IC50 [17]: > 111 µM (not active)

CC(C)OCCCn1c(=S)[nH]c2cc3c(cc2c1=O)OCO3
IC50 [15]: > 50 µM (not active)
IC50 [21]: > 100 µM (inactive)

Cc1ccc(CNC(=O)CCC2CCCN(Cc3c(C)nn(C(C)C)c3C)C2)o1 (stereo unspecified)
EC50 [12]: < 0.1 µM (active)
EC50 [13]: > 60 µM (not active)
EC50 [14]: 0.011 µM (active)

COc1ccc(C(C)(C)C)cc1NC(=O)C1CC=CCC1C(=O)O (stereo unspecified)
IC50 [5]: 3.05 µM (active)
IC50 [6]: > 73.5 µM (not active)
IC50 [8]: > 59.6 µM (not active)
